In the supplement of paper PMC10307832:

What was measured:
Test in all cases: relative viability (nuclei count vs DMSO), 5 days (fraction); higher = more cells survive
[1] = compound: C1CC(C1)(C(=O)O)C(=O)O.[NH2-].[NH2-].[Pt+2] [Carboplatin] + N=C(N)NC(=N)NCCc1ccccc1 [Phenformin] (partner 250 µM)
How it was run: (§1)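 Dosing by pin tool came one day after lung cancer cell lines were seeded in 1536-well plates, using either one drug or a fixed anchor-drug dose plus five library-drug doses (not always all listed) in √10 steps. After 5 days, nuclei were counted on 4× images. Relative viability is treated-well nuclei count divided by vehicle-well nuclei count, and values are medians of duplicate plates.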

[2] = compound: CC[C@H](C)N1C=C(C2=C(C=C(C=C21)C3=CN=C(C=C3)N4CCNCC4)C(=O)NCC5=C(C=C(NC5=O)C)C)C [GSK126] + CCNC(=O)c1noc(-c2cc(C(C)C)c(O)cc2O)c1-c1ccc(CN2CCOCC2)cc1 [Luminespib] (partner 0.01 µM)
How it was run: as §1

[3] = compound: CC[C@H](C)N1C=C(C2=C(C=C(C=C21)C3=CN=C(C=C3)N4CCNCC4)C(=O)NCC5=C(C=C(NC5=O)C)C)C [GSK126] + C[C@@H](Oc1cc(-c2cnn(C3CCNCC3)c2)cnc1N)c1c(Cl)ccc(F)c1Cl [Crizotinib] (partner 1 µM)
How it was run: as §1

[4] = compound: NS(=O)(=O)OC[C@@H]1C[C@@H](n2ccc3c(N[C@H]4CCc5ccccc54)ncnc32)C[C@@H]1O [MLN4924] + CS(=O)(=O)CCNCc1ccc(-c2ccc3ncnc(Nc4ccc(OCc5cccc(F)c5)c(Cl)c4)c3c2)o1 [Lapatinib] (partner 2 µM)
How it was run: as §1

| Cell Line | relative viability ([1]; first compound 0.08 µM) | relative viability ([1]; first compound 0.253 µM) | relative viability ([1]; first compound 0.8 µM) | relative viability ([1]; first compound 2.53 µM) | relative viability ([1]; first compound 8 µM) | relative viability ([2]; first compound 0.08 µM) | relative viability ([2]; first compound 0.253 µM) | relative viability ([2]; first compound 0.8 µM) | relative viability ([2]; first compound 2.53 µM) | relative viability ([2]; first compound 8 µM) | relative viability ([3]; first compound 0.08 µM) | relative viability ([3]; first compound 0.253 µM) | relative viability ([3]; first compound 0.8 µM) | relative viability ([3]; first compound 2.53 µM) | relative viability ([3]; first compound 8 µM) | relative viability ([4]; first compound 0.1265 µM) | relative viability ([4]; first compound 0.4 µM) | relative viability ([4]; first compound 1.265 µM) | relative viability ([4]; first compound 4 µM) | relative viability ([4]; first compound 0.04 µM) |
| --- | --- | --- | --- | --- | --- | --- | --- | --- | --- | --- | --- | --- | --- | --- | --- | --- | --- | --- | --- | --- |
| NCI-H2228 | 0.26 | 0.342 | 0.294 | 0.257 | 0.282 | 0.173 | 0.12 | 0.116 | 0.118 | 0.205 | 0.547 | 0.492 | 0.368 | 0.573 | 0.458 | 0.638 | 0.271 | 0.13 | 0.161 | – |
| NCI-H2347 | 0.36 | 0.382 | 0.583 | 0.534 | 0.324 | 0.757 | 0.701 | 0.308 | 0.392 | 0.267 | 0.706 | 0.667 | 0.658 | 0.708 | 0.559 | 0.897 | 0.487 | 0.338 | 0.412 | 0.746 |
| NCI-H2405 | 0.455 | 0.379 | 0.369 | 0.38 | 0.383 | 0.946 | 0.74 | 0.711 | 0.695 | 0.604 | 0.947 | 0.753 | 0.816 | 0.817 | 0.814 | 1.05 | 0.511 | 0.192 | 0.195 | 1.26 |
| NCI-H3122 | 0.4 | 0.399 | 0.385 | 0.37 | 0.359 | 0.0614 | 0.0957 | 0.0787 | 0.0846 | 0.103 | 0.251 | 0.341 | 0.292 | 0.267 | 0.347 | 0.629 | 0.293 | 0.177 | 0.206 | 0.991 |
| PC-3 [JPC-3] | 0.486 | 0.461 | 0.449 | 0.473 | 0.456 | 0.75 | 0.728 | 0.745 | 0.708 | 0.734 | 0.993 | 0.997 | 0.982 | 0.956 | 1.02 | 0.51 | 0.277 | 0.261 | 0.262 | 0.478 |
| PC-14 | 0.807 | 0.592 | 0.53 | 0.383 | 0.274 | 0.163 | 0.144 | 0.174 | 0.155 | 0.114 | 0.839 | 0.989 | 0.922 | 0.892 | 0.799 | 0.655 | 0.395 | 0.157 | 0.136 | 0.382 |
| RERF-LC-KJ | 0.45 | 0.387 | 0.386 | 0.335 | 0.317 | 1.22 | 1.09 | 1.31 | 1.3 | 1.16 | 0.841 | 0.896 | 0.826 | 0.785 | 0.838 | 0.555 | 0.227 | 0.191 | 0.221 | 0.746 |
| SK-LU-1 | 0.78 | 0.578 | 0.44 | 0.533 | 0.41 | 0.194 | 0.192 | 0.215 | 0.182 | 0.214 | 1.01 | 0.935 | 0.949 | 1.13 | 1.06 | 0.491 | 0.299 | 0.19 | 0.181 | 0.703 |
| SK-MES-1 | 0.681 | 0.672 | 0.671 | 0.638 | 0.592 | 0.856 | 0.76 | 0.823 | 0.866 | 0.908 | 1.01 | 0.971 | 0.931 | 0.925 | 1.05 | 0.722 | 0.486 | 0.281 | 0.212 | 0.534 |
| SW 1573 | 0.38 | 0.354 | 0.414 | 0.359 | 0.265 | 0.424 | 0.374 | 0.196 | 0.43 | 0.16 | 0.868 | 0.82 | 0.751 | 0.84 | 0.785 | 1.1 | 0.565 | 0.13 | 0.114 | 0.781 |
